Experimental data: PubChem BioAssay AID256 (DTP/NCI, 2004)
Where “and” joins values, the source holds several entries; their conditions need not be identical. Identical values can stand only once. Inconclusive results and toxic doses are left out. The calls were made as follows: active = survival T/C of 150% or more; inactive = T/C below 125% in these data.

System: CD2F1 mice, L1210 leukemia ip, survival T/C
Test: NCI In Vivo Anticancer Drug Screen. Data for tumor model L1210 Leukemia (intraperitoneal) in CD2F1 (CDF1) mice
Settings: higher = longer survival
In short: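 Implant tumor; dose compound or vehicle; measure endpoint in both groups; report treated divided by control.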

[1] = endpoint: mean survival time, dose: 25.0 mg/kg/injection, schedule: Q01DX009 (ip), vehicle: saline with Tween-80
[2] = endpoint: mean survival time, dose: 50.0 mg/kg/injection, schedule: Q01DX009 (ip), vehicle: saline with Tween-80
[3] = endpoint: mean survival time, dose: 100.0 mg/kg/injection, schedule: Q01DX009 (ip), vehicle: saline with Tween-80
[4] = endpoint: mean survival time, dose: 12.5 mg/kg/injection, schedule: Q01DX009 (ip), vehicle: Klucel (hydroxypropylcellulose) (HPC)
[5] = endpoint: mean survival time, dose: 12.5 mg/kg/injection, schedule: Q01DX009 (ip), vehicle: saline with Tween-80
[6] = endpoint: mean survival time, dose: 25.0 mg/kg/injection, schedule: Q01DX009 (ip), vehicle: Klucel (hydroxypropylcellulose) (HPC)
[7] = endpoint: mean survival time, dose: 50.0 mg/kg/injection, schedule: Q01DX009 (ip), vehicle: Klucel (hydroxypropylcellulose) (HPC)
[8] = endpoint: mean survival time, dose: 100.0 mg/kg/injection, schedule: Q01DX009 (ip), vehicle: Klucel (hydroxypropylcellulose) (HPC)
[9] = endpoint: mean survival time, dose: 200.0 mg/kg/injection, schedule: Q01DX009 (ip), vehicle: Klucel (hydroxypropylcellulose) (HPC)
[10] = endpoint: mean survival time, dose: 200.0 mg/kg/injection, schedule: Q01DX009 (ip), vehicle: saline with Tween-80
[11] = endpoint: mean survival time, dose: 400.0 mg/kg/injection, schedule: Q01DX009 (ip), vehicle: saline with Tween-80
[12] = endpoint: mean survival time, dose: 100.0 mg/kg/injection, schedule: Q04DX002 (ip), vehicle: saline with Tween-80
[13] = endpoint: mean survival time, dose: 200.0 mg/kg/injection, schedule: Q04DX002 (ip), vehicle: saline with Tween-80
[14] = endpoint: mean survival time, dose: 400.0 mg/kg/injection, schedule: Q04DX002 (ip), vehicle: saline with Tween-80
[15] = endpoint: mean survival time, dose: 100.0 mg/kg/injection, schedule: Q01DX001 (ip), vehicle: saline
[16] = endpoint: mean survival time, dose: 200.0 mg/kg/injection, schedule: Q01DX001 (ip), vehicle: saline
[17] = endpoint: mean survival time, dose: 100.0 mg/kg/injection, schedule: Q04DX003 (ip), vehicle: saline with Tween-80
[18] = endpoint: mean survival time, dose: 200.0 mg/kg/injection, schedule: Q04DX003 (ip), vehicle: saline with Tween-80

Measured: T/C

O=[N+]([O-])c1cccc(SNc2cccc(Cl)c2)c1
inactive: [1] 102 % of control | [2] 90 % of control | [3] 94 % of control

CCOC(=O)c1ccc(NC(=O)Nc2nccs2)cc1
inactive: endpoint: mean survival time, dose: 6.25 mg/kg/injection, schedule: Q01DX009 (ip), vehicle: Klucel (hydroxypropylcellulose) (HPC) 101 % of control | endpoint: mean survival time, dose: 6.25 mg/kg/injection, schedule: Q01DX009 (oral), vehicle: Klucel (hydroxypropylcellulose) (HPC) 101 % of control | [4] 100 % of control | [5] 108 % of control | endpoint: mean survival time, dose: 12.5 mg/kg/injection, schedule: Q01DX009 (oral), vehicle: Klucel (hydroxypropylcellulose) (HPC) 100 % of control | endpoint: mean survival time, dose: 12.5 mg/kg/injection, schedule: Q01DX009 (oral), vehicle: saline with Tween-80 103 % of control | [6] 97 % of control | [1] 110 % of control | endpoint: mean survival time, dose: 25.0 mg/kg/injection, schedule: Q01DX009 (oral), vehicle: Klucel (hydroxypropylcellulose) (HPC) 100 % of control | endpoint: mean survival time, dose: 25.0 mg/kg/injection, schedule: Q01DX009 (oral), vehicle: saline with Tween-80 97 % of control | [7] 97 % of control | [2] 114 % of control and 122 % of control | endpoint: mean survival time, dose: 50.0 mg/kg/injection, schedule: Q01DX009 (oral), vehicle: Klucel (hydroxypropylcellulose) (HPC) 105 % of control | endpoint: mean survival time, dose: 50.0 mg/kg/injection, schedule: Q01DX009 (oral), vehicle: saline with Tween-80 100 % of control | [8] 105 % of control | [3] 121 % of control and 110 % of control | endpoint: mean survival time, dose: 100.0 mg/kg/injection, schedule: Q01DX009 (oral), vehicle: Klucel (hydroxypropylcellulose) (HPC) 95 % of control | endpoint: mean survival time, dose: 100.0 mg/kg/injection, schedule: Q01DX009 (oral), vehicle: saline with Tween-80 101 % of control | [9] 110 % of control | [10] 106 % of control | endpoint: mean survival time, dose: 200.0 mg/kg/injection, schedule: Q01DX009 (oral), vehicle: Klucel (hydroxypropylcellulose) (HPC) 100 % of control | endpoint: mean survival time, dose: 200.0 mg/kg/injection, schedule: Q01DX009 (oral), vehicle: saline with Tween-80 95 % of control | [11] 121 % of control | endpoint: mean survival time, dose: 400.0 mg/kg/injection, schedule: Q01DX009 (oral), vehicle: saline with Tween-80 97 % of control

[I][Ni][I].c1ccc([PH+](c2ccccc2)c2ccccc2)cc1.c1ccc([PH+](c2ccccc2)c2ccccc2)cc1
inactive: [12] 87 % of control | [13] 91 % of control | [14] 87 % of control

CCCCCCCCCCCC(=O)OCCN(C=O)C[n+]1ccccc1
inactive: endpoint: mean survival time, dose: 100.0 mg/kg/injection, schedule: Q04DX002 (ip), vehicle: saline 101 % of control

CC(=O)OCC1OC(n2ncnc2CI)C(OC(C)=O)C(OC(C)=O)C1OC(C)=O (stereo not given)
inactive: endpoint: median survival time, dose: 12.5 mg/kg/injection, schedule: Q01DX005 (ip), vehicle: distilled water + Tween-80 105 % of control | endpoint: median survival time, dose: 25.0 mg/kg/injection, schedule: Q01DX005 (ip), vehicle: distilled water + Tween-80 105 % of control | endpoint: median survival time, dose: 50.0 mg/kg/injection, schedule: Q01DX005 (ip), vehicle: distilled water + Tween-80 96 % of control

O=C(O)CCC(=O)c1ccccc1
inactive: [2] 101 % of control | [3] 106 % of control | [10] 106 % of control

O=[N+]([O-])c1ccc(/C(CBr)=N/N2CCCCC2)cc1
inactive: [15] 94 % of control | [16] 93 % of control | endpoint: mean survival time, dose: 400.0 mg/kg/injection, schedule: Q01DX001 (ip), vehicle: saline 92 % of control

CC12C(=O)OC(=O)C1(C)C1CCC2O1 (stereo not given)
inactive: endpoint: mean survival time, dose: 0.39 mg/kg/injection, schedule: Q01DX009 (ip), vehicle: saline with Tween-80 94 % of control | endpoint: mean survival time, dose: 0.78 mg/kg/injection, schedule: Q01DX009 (ip), vehicle: saline with Tween-80 98 % of control | endpoint: mean survival time, dose: 1.56 mg/kg/injection, schedule: Q01DX009 (ip), vehicle: saline with Tween-80 105 % of control | endpoint: mean survival time, dose: 1.56 mg/kg/injection, schedule: Q04DX002 (ip), vehicle: saline with Tween-80 92 % of control

O=C(CC(O)(C(F)(F)F)C(F)(F)F)CC(O)(C(F)(F)F)C(F)(F)F
inactive: endpoint: mean survival time, dose: 5.0 mg/kg/injection, schedule: Q01DX001 (ip), vehicle: saline with Tween-80 94 % of control | endpoint: mean survival time, dose: 5.0 mg/kg/injection, schedule: Q04DX003 (ip), vehicle: saline 102 % of control | endpoint: mean survival time, dose: 10.0 mg/kg/injection, schedule: Q04DX003 (ip), vehicle: saline 92 % of control

O=S(=O)(N/N=C/c1ccccc1)c1ccccc1
inactive: [4] 97 % of control | [6] 95 % of control | [7] 90 % of control | [8] 94 % of control | [9] 92 % of control | endpoint: mean survival time, dose: 400.0 mg/kg/injection, schedule: Q01DX009 (ip), vehicle: Klucel (hydroxypropylcellulose) (HPC) 97 % of control

COC(=O)Nc1ccc(NC(=O)c2cscn2)c(NC(=O)OC)n1
inactive: [17] 98 % of control | [18] 91 % of control

CC/C1=C/N(C=O)CCc2c([nH]c3ccccc23)C(C(=O)OC)(c2cc3c(cc2OC)N(C)C2C(O)(C(=O)OC)C(OC(C)=O)C4(CC)C=CCN5CCC32C54)CC(=O)C1 (stereo not given)
inactive: endpoint: mean survival time, dose: 50.0 mg/kg/injection, schedule: Q01DX001 (ip), vehicle: saline 107 % of control | [15] 102 % of control | [16] 96 % of control

NC(=O)N1c2c(nc(N)[nH]c2=O)NCC1CNc1ccc(C(=O)NC(CCC(=O)O)C(=O)O)cc1 (stereo not given)
inactive: endpoint: mean survival time, dose: 100.0 mg/kg/injection, schedule: Q01DX001 (ip), vehicle: sodium bicarbonate 102 % of control | endpoint: mean survival time, dose: 200.0 mg/kg/injection, schedule: Q01DX001 (ip), vehicle: sodium bicarbonate 97 % of control | endpoint: mean survival time, dose: 400.0 mg/kg/injection, schedule: Q01DX001 (ip), vehicle: sodium bicarbonate 96 % of control

CO/N=C(/c1ccccc1)c1cccc[n+]1C
inactive: endpoint: mean survival time, dose: 9.4 mg/kg/injection, schedule: Q01DX009 (ip), vehicle: saline 107 % of control | endpoint: mean survival time, dose: 18.8 mg/kg/injection, schedule: Q01DX009 (ip), vehicle: saline 97 % of control | endpoint: mean survival time, dose: 37.5 mg/kg/injection, schedule: Q01DX009 (ip), vehicle: saline 98 % of control | endpoint: mean survival time, dose: 75.0 mg/kg/injection, schedule: Q01DX001 (ip), vehicle: saline 97 % of control

COc1ccc(/C=C2/SC(=S)NC2=O)c(OC)c1OC
inactive: endpoint: mean survival time, dose: 75.0 mg/kg/injection, schedule: Q01DX001 (ip), vehicle: other 103 % of control | endpoint: mean survival time, dose: 150.0 mg/kg/injection, schedule: Q01DX001 (ip), vehicle: other 92 % of control | endpoint: mean survival time, dose: 300.0 mg/kg/injection, schedule: Q01DX001 (ip), vehicle: other 103 % of control

CC/S(=N\S(=O)(=O)c1ccc(C)cc1)c1ccccc1 (stereo not given)
inactive: [17] 104 % of control | [18] 108 % of control | endpoint: mean survival time, dose: 400.0 mg/kg/injection, schedule: Q04DX003 (ip), vehicle: saline with Tween-80 98 % of control

O=c1ccn(CC(O)c2cc3ccccc3[nH]2)c(=O)[nH]1 (stereo not given)
inactive: [12] 112 % of control | [13] 112 % of control | [14] 108 % of control

COc1ccc(OC)c(/C=C/c2cc3ccccc3c[n+]2C)c1
inactive: endpoint: mean survival time, dose: 3.13 mg/kg/injection, schedule: Q01DX009 (ip), vehicle: saline with Tween-80 94 % of control | endpoint: mean survival time, dose: 6.25 mg/kg/injection, schedule: Q01DX009 (ip), vehicle: saline with Tween-80 102 % of control | [5] 105 % of control

CC(C)(O)C#Cc1ccccc1
inactive: [3] 98 % of control | [10] 98 % of control | [11] 96 % of control
